Data reported in patent publication US7592374B2, “Insecticidal nitromethylene compounds” (Crompton Corporation, priority 2005, dated 2009).

Legend:
Assay type in all cases: in vivo
Helicoverpa virescens = assay: Tobacco budworm test (TB); conditions: Heliothis virescens, 336 h; 0.2 mL of 3000 ppm stock solution on diet cell surface; second instar larva; after 14 days; corrected by Abbott's formula; read-out: Percent Control TB (tobacco budworm)
Protocol: In the following examples, a stock solution for the compounds of the present invention was prepared at 3000 ppm by dissolving 0.24 gram of each compound to be tested in eight mL of acetone and adding 72 mL of distilled water plus three drops of ethoxylated sorbitan monolaurate, a wetting agent. […] For each example that follows, the stock solution was used and the specificized dilutions made. All the tests discussed below, which involved treatment with compounds of this invention, were always repeated with controls, in which the active compound was not provided, to permit a comparison upon which the percent control was calculated.
For each compound tested, 0.2 mL of the stock solution prepared asdescribed above, was pipetted onto the surface of each of five diet cells, allowed to spread over the surfaces and air dried for two hours. Then a second instar Helicoverpa virescens larva was introduced into each cell. After 14 days, the number of living larvae was determined for each treatment and percent control, corrected by Abbott's formula, was calculated.

Tetranychus urticae Koch [1] = assay: Mite adulticide test (MI); conditions: 120 h, 1000 ppm spray to run off on cowpea leaves, adult mites placed 1 day after treatment, live mites counted five days later, read-out: Percent Control MI (mite adulticide)
Protocol: In the following examples, a stock solution for the compounds of the present invention was prepared at 3000 ppm by dissolving 0.24 gram of each compound to be tested in eight mL of acetone and adding 72 mL of distilled water plus three drops of ethoxylated sorbitan monolaurate, a wetting agent. […] For each example that follows, the stock solution was used and the specificized dilutions made. All the tests discussed below, which involved treatment with compounds of this invention, were always repeated with controls, in which the active compound was not provided, to permit a comparison upon which the percent control was calculated. One day before treatment of cowpea primary leaves with the test solutions, a “Figure 8” configuration of tree tanglefoot was applied to each of two cowpea primary leaves, one from each of two plants in a pot. The circle nearer the stem was designated for the mite ovicide test and the circle further from the stem was designated for the mite adulticide test. Groups of adult mites (Tetranychus urticae Koch) were transferred into ovicide circles one day before treatment and the females were allowed to deposit eggs until one hour before treatment, at which point all the adults were removed. The plants were then sprayed to run off with a 1000 ppm of solution diluted from the 3000 ppm stock solution. One day following treatment of the plants with the test solution, groups of approximately 25 adult mites were transferred into the adulticide rings. Five days later, these rings were examined for live mites remaining on the leaves. The percent control was estimated based on the number of mites surviving on the control plants.

Tetranychus urticae Koch [2] = assay: Mite ovicide test (MIOV); conditions: 216 h, 1000 ppm spray to run off on cowpea leaves, unhatched eggs examined nine days following treatment, read-out: Percent Control MIOV (mite ovicide)
Protocol: In the following examples, a stock solution for the compounds of the present invention was prepared at 3000 ppm by dissolving 0.24 gram of each compound to be tested in eight mL of acetone and adding 72 mL of distilled water plus three drops of ethoxylated sorbitan monolaurate, a wetting agent. […] For each example that follows, the stock solution was used and the specificized dilutions made. All the tests discussed below, which involved treatment with compounds of this invention, were always repeated with controls, in which the active compound was not provided, to permit a comparison upon which the percent control was calculated. One day before treatment of cowpea primary leaves with the test solutions, a “Figure 8” configuration of tree tanglefoot was applied to each of two cowpea primary leaves, one from each of two plants in a pot. The circle nearer the stem was designated for the mite ovicide test and the circle further from the stem was designated for the mite adulticide test. Groups of adult mites (Tetranychus urticae Koch) were transferred into ovicide circles one day before treatment and the females were allowed to deposit eggs until one hour before treatment, at which point all the adults were removed. The plants were then sprayed to run off with a 1000 ppm of solution diluted from the 3000 ppm stock solution. Nine days following treatment the ovicide rings were examined for unhatched eggs and living immature mites. The percent control was estimated based on the number of unhatched eggs.

Row | Compound | pest or weed control at 3000 µg/mL (Helicoverpa virescens) [%] | pest or weed control at 1000 ppm (Tetranychus urticae Koch [1]) [%] | pest or weed control at 1000 ppm (Tetranychus urticae Koch [2]) [%]
1 | CCC/C(=N\Nc1cc(-c2ccccc2)ccc1OC)[N+](=O)[O-] [Compound 3] | 0 | 100 | 100
2 | CC/C(=N/Nc1ccc(Cl)nc1)[N+](=O)[O-] [Compound 12] | 100 | 100 | 70
3 | C/C(=N\Nc1ccc2c(c1)Cc1ccccc1-2)[N+](=O)[O-] [Compound 10] | 0 | 0 | 0
4 | CC(C)C/C(=N\Nc1cccc(-c2ccccc2)c1)[N+](=O)[O-] [Compound 8] | 40 | 100 | 0
5 | CC/C(=N\Nc1cccc(-c2ccccc2)c1)[N+](=O)[O-] [Compound 5] | 0 | 100 | 0
6 | COc1ccc(-c2ccccc2)cc1N/N=C/[N+](=O)[O-] [Compound 2] | 100 | 0 | 0
7 | CC/C(=N\Nc1ccc2c(c1)c1ccccc1n2CC)[N+](=O)[O-] [Compound 11] | 57 | 30 | 30
8 | CC/C(=N/Nc1cc(OC)ccc1-c1ccccc1)[N+](=O)[O-] [Compound 9] | 14 | 70 | 70
9 | COc1ccc(-c2ccccc2)cc1N/N=C(/C(C)C)[N+](=O)[O-] [Compound 4] | 0 | 100 | 0
10 | CCCCCOc1ccc(-c2ccccc2)cc1N/N=C(/CC)[N+](=O)[O-] [Compound 6] | 0 | 100 | 30
11 | CC/C(=N\Nc1cc(-c2ccccc2)ccc1OC)[N+](=O)[O-] [Compound 1, Propanal, 1-nitro, (4-methoxy-[1,1′-biphenyl]-3-yl)hydrazone] | 64 | 100 | 100
12 | CC/C(=N/Nc1cc(-c2ccccc2)ccc1C)[N+](=O)[O-] [Compound 7] | 0 | 100 | 70
